Source: ChEMBL document CHEMBL1201862, “PubChem BioAssay data set” (2004)
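A five-concentration, 48-hour dose response in 96-well plates underlies each endpoint, interpolated linearly between surrounding concentrations. At the GI50, growth is halved.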 Calls of active or inactive are those of the source. Cut-off read from the data, not from the text of the source: active = GI50 up to about 1.1 µM and inactive = higher.

Assays:
Experiment in all cases: NCI tumour cell line growth inhibition, 48 h
SF-295 = tested on: SF-295
LOX IMVI = tested on: LOX IMVI
M14 = tested on: M14
TK-10 = tested on: TK-10
SK-MEL-5 = tested on: SK-MEL-5
CCRF-CEM = tested on: CCRF-CEM
NCI-H226 = tested on: NCI-H226
OVCAR-5 = tested on: OVCAR-5
SF-268 = tested on: SF-268
NCI-H23 = tested on: NCI-H23
DLD-1 = tested on: DLD-1
OVCAR-8 = tested on: OVCAR-8
SNB-19 = tested on: SNB-19
UO-31 = tested on: UO-31
OVCAR-3 = tested on: OVCAR-3
A498 = tested on: A498
NCI-H460 = tested on: NCI-H460
OVCAR-4 = tested on: OVCAR-4
RXF 631 = tested on: RXF 631
SK-MEL-2 = tested on: SK-MEL-2
EKVX = tested on: EKVX
HT-29 = tested on: HT-29
CAKI-1 = tested on: CAKI-1
A549 = tested on: A549
U-251 = tested on: U-251
UACC-62 = tested on: UACC-62
UACC-257 = tested on: UACC-257
SN12C = tested on: SN12C
DMS-114 = tested on: DMS-114
SK-OV-3 = tested on: SK-OV-3
IGROV-1 = tested on: IGROV-1
XF498 = tested on: XF498
Malme-3M = tested on: Malme-3M
NCI-H522 = tested on: NCI-H522
HOP-18 = tested on: HOP-18
SW-620 = tested on: SW-620
RPMI-8226 = tested on: RPMI-8226
LXFL 529 = tested on: LXFL 529
K562 = tested on: K562
SF-539 = tested on: SF-539
ACHN = tested on: ACHN
786-0 = tested on: 786-0
COLO 205 = tested on: COLO 205
DMS-273 = tested on: DMS-273
HOP-92 = tested on: HOP-92
HCT-116 = tested on: HCT-116
HCC 2998 = tested on: HCC 2998
KM12 = tested on: KM12
SNB-78 = tested on: SNB-78
MOLT-4 = tested on: MOLT-4
HL-60 = tested on: HL-60
KM-20L2 = tested on: KM-20L2
HCT-15 = tested on: HCT-15
RXF 393 = tested on: RXF 393
HOP-62 = tested on: HOP-62
SNB-75 = tested on: SNB-75
M19-MEL = tested on: M19-MEL
SK-MEL-28 = tested on: SK-MEL-28

## Cc1ccc(NC(=O)CCC(=O)C(C#N)c2ccccc2)cc1C (stereo not drawn)
SF-295
  GI50: > 100 µM (inactive)
LOX IMVI
  GI50: > 100 µM (inactive)
M14
  GI50: > 100 µM (inactive)
TK-10
  GI50: > 100 µM (inactive)
SK-MEL-5
  GI50: > 100 µM (inactive)
CCRF-CEM
  GI50: > 100 µM (inactive)
NCI-H226
  GI50: > 100 µM (inactive)
OVCAR-5
  GI50: > 100 µM (inactive)
SF-268
  GI50: > 100 µM (inactive)
NCI-H23
  GI50: > 100 µM (inactive)
DLD-1
  GI50: > 100 µM (inactive)
OVCAR-8
  GI50: > 100 µM (inactive)
SNB-19
  GI50: > 100 µM (inactive)
UO-31
  GI50: > 100 µM (inactive)
OVCAR-3
  GI50: > 100 µM (inactive)
A498
  GI50: > 100 µM (inactive)
NCI-H460
  GI50: > 100 µM (inactive)
OVCAR-4
  GI50: > 100 µM (inactive)
RXF 631
  GI50: > 100 µM (inactive)
SK-MEL-2
  GI50: > 100 µM (inactive)
EKVX
  GI50: > 100 µM (inactive)
HT-29
  GI50: > 100 µM (inactive)
CAKI-1
  GI50: > 100 µM (inactive)
A549
  GI50: > 100 µM (inactive)
U-251
  GI50: > 100 µM (inactive)
UACC-62
  GI50: > 100 µM (inactive)
UACC-257
  GI50: > 100 µM (inactive)
SN12C
  GI50: > 100 µM (inactive)
DMS-114
  GI50: > 100 µM (inactive)
SK-OV-3
  GI50: > 100 µM (inactive)
IGROV-1
  GI50: > 100 µM (inactive)
XF498
  GI50: > 100 µM (inactive)
Malme-3M
  GI50: > 100 µM (inactive)
NCI-H522
  GI50: > 100 µM (inactive)
HOP-18
  GI50: > 100 µM (inactive)
SW-620
  GI50: > 100 µM (inactive)
RPMI-8226
  GI50: > 100 µM (inactive)
LXFL 529
  GI50: > 100 µM (inactive)
K562
  GI50: > 100 µM (inactive)
SF-539
  GI50: > 100 µM (inactive)
ACHN
  GI50: > 100 µM (inactive)
786-0
  GI50: > 100 µM (inactive)
COLO 205
  GI50: > 100 µM (inactive)
DMS-273
  GI50: > 100 µM (inactive)
HOP-92
  GI50: > 100 µM (inactive)
HCT-116
  GI50: > 100 µM (inactive)
HCC 2998
  GI50: > 100 µM (inactive)
KM12
  GI50: > 100 µM (inactive)
SNB-78
  GI50: > 100 µM (inactive)
MOLT-4
  GI50: > 100 µM (inactive)
HL-60
  GI50: > 100 µM (inactive)
KM-20L2
  GI50: > 100 µM (inactive)
HCT-15
  GI50: > 100 µM

## OC(CCNC12CC3CC(CC(C3)C1)C2)c1ccccc1 (stereo not drawn)
SF-295
  GI50: > 100 µM (inactive)
RXF 393
  GI50: > 100 µM (inactive)
M14
  GI50: 40.4 µM (inactive)
TK-10
  GI50: > 100 µM (inactive)
SK-MEL-5
  GI50: 43.7 µM (inactive)
CCRF-CEM
  GI50: 60.5 µM (inactive)
NCI-H226
  GI50: > 100 µM (inactive)
OVCAR-5
  GI50: > 100 µM (inactive)
SF-268
  GI50: > 100 µM (inactive)
NCI-H23
  GI50: > 100 µM (inactive)
DLD-1
  GI50: 99.8 µM (inactive)
OVCAR-8
  GI50: > 100 µM (inactive)
SNB-19
  GI50: > 100 µM (inactive)
UO-31
  GI50: 43.9 µM (inactive)
OVCAR-3
  GI50: > 100 µM (inactive)
A498
  GI50: > 100 µM (inactive)
NCI-H460
  GI50: > 100 µM (inactive)
OVCAR-4
  GI50: > 100 µM (inactive)
RXF 631
  GI50: > 100 µM (inactive)
SK-MEL-2
  GI50: > 100 µM (inactive)
EKVX
  GI50: > 100 µM (inactive)
HT-29
  GI50: 35.3 µM (inactive)
CAKI-1
  GI50: > 100 µM (inactive)
A549
  GI50: > 100 µM (inactive)
U-251
  GI50: > 100 µM (inactive)
UACC-62
  GI50: > 100 µM (inactive)
UACC-257
  GI50: > 100 µM (inactive)
SN12C
  GI50: > 100 µM (inactive)
DMS-114
  GI50: 57.9 µM (inactive)
SK-OV-3
  GI50: > 100 µM (inactive)
IGROV-1
  GI50: 72.1 µM (inactive)
XF498
  GI50: > 100 µM (inactive)
Malme-3M
  GI50: > 100 µM (inactive)
NCI-H522
  GI50: > 100 µM (inactive)
HOP-62
  GI50: > 100 µM (inactive)
SNB-75
  GI50: 75.7 µM (inactive)
HOP-18
  GI50: > 100 µM (inactive)
SW-620
  GI50: > 100 µM (inactive)
LXFL 529
  GI50: > 100 µM (inactive)
M19-MEL
  GI50: > 100 µM (inactive)
SK-MEL-28
  GI50: > 100 µM (inactive)
SF-539
  GI50: > 100 µM (inactive)
ACHN
  GI50: > 100 µM (inactive)
786-0
  GI50: > 100 µM (inactive)
COLO 205
  GI50: 51.8 µM (inactive)
DMS-273
  GI50: 80.4 µM (inactive)
HOP-92
  GI50: 78.3 µM (inactive)
HCT-116
  GI50: 80.7 µM (inactive)
HCC 2998
  GI50: 68.7 µM (inactive)
KM12
  GI50: 88.9 µM (inactive)
SNB-78
  GI50: > 100 µM (inactive)
MOLT-4
  GI50: > 100 µM (inactive)
HL-60
  GI50: > 100 µM (inactive)
KM-20L2
  GI50: 49.3 µM (inactive)
HCT-15
  GI50: > 100 µM
